Laboratory results: US20250360106A1, “PREVENTING IMMUNOTHERAPY-INDUCED EDEMA USING ANGIOTENSIN RECEPTOR BLOCKERS” (The General Hospital Corporation, priority 2022, published 2025)
“Also recorded” adds a separate entry of the source.

Columns and labels:
recurrent GBM patient = assay: MR T2-FLAIR imaging of a recurrent GBM patient before and after anti-PD-L1; format: in vivo, human; conditions: after 4 months of anti-PD-L1 treatment; NCT02336165
GBM patients [1] = assay: Patient overall survival, Kaplan-Meier (trial NCT00662506); format: in vivo, human; conditions: cediranib, patients not on ASIs; n=33
PD-L1 = PD-L1 immunohistochemistry, GL261; format: in vivo, mice; conditions: 2 weeks of losartan, n=11-13
Description: (§1) Brains with tumors were prepped and stained for histology as previously described (45) and imaged on a TissueFAXS (TissueGnostics) slide scanner at the Ragon Institute, Massachusetts Institute of Technology.

GL261 tumors [2] = assay: Flow cytometry of tumors and cervical draining lymph nodes, GL261; format: in vivo, mice
Description: Single-cell suspensions were prepared from tumors and cervical draining lymph nodes that were isolated and dissected under stereotactic microscope. Cells were stained and processed (on a BD LSRFortessa X-20 Cell analyzer) and analyzed (FlowJo, Tree Star) as previously described (16). The following antibodies from BD Biosciences, EBioscience, and BioLegend were used at 1:200 dilutions: CD45-BV605, CD3-BV785, CD4-BV640, CD8-BV711A, NK1.1-APC; FoxP3-BV421; PD1-PerCP710A; TIGIT-PE Cy7; TIM3-PE; CD19-BV510; K167-FITC; GranzymeB-PE Cy7; CD11 b-BV785; MHCII-BV605; F4/80-PerCP Cy5.5; CX3CR1-APC; CD206-PE CY7; CD86-BV650; CCR2-PE; GR1-AF700.

[3] = tested on: MT-MMP-1 and -2 (Mt1, Mt2); assay: scRNASeq of tumor endothelial cells (TECs) from GL261 tumors; format: in vivo, mice
Description: Following the single-cell suspension techniques of flow cytometry, tumor cells were blocked in 1% bovine serum albumin in phosphate-buffered saline solution (1% BSA/PBS). Cell suspensions were subsequently stained for flow cytometry for 30 min at 4° C. using antibodies specific for CD45 [30F11]-VioBlue from Miltenyi, CD3 [145-2C11]-PE from Biolegends, and CD 31 [MEC 13.3]-PE from BD Biosciences. Cells were washed with cold PBS, and then incubated for 15 min in 1.5 mL of 1% BSA/PBS containing 1 uM calcein AM (Life Technologies) and 0.33 uM TO-PRO-3 iodide (Life Technologies). Sorting was performed with the FACS Aria Fusion Special Order System (Becton Dickinson) using 488 nm (calcein AM, 530/30 filter; CD3-PE, 585/42 filter), 640 nm (TO-PRO-3, 670/14 filter), and 405 nm (CD45-VioBlue, 450/50 filter) lasers. […]
Sequencing data was processed from raw reads to gene expression matrices, starting with fbcl2fastq (v2.20.0) to generate demultiplexed FASTQ files. Bowtie was used to align the resulting paired-end scRNA-seq reads to the mouse transcriptome (mm10). Gene expression levels were quantified as transcripts-per-million (TPM) by running RSEM (v1.2.19) in paired-end mode. […]

005 GSC [4] = assay: Survival study, 005 GSC model; format: in vivo, mice; conditions: losartan with anti-PD1, no detectable tumors over 100 days
Description: (§2) Brain tumor implantation in the forebrain (50,000-100,000 cells), cranial window surgery and tumor resection as part of the standard of care treatment regimen were conducted as previously described (16, 43, 45). Mice were allowed to recover for 10-14 days after cranial window surgery prior to tumor implantation, and for 2 days after resection surgery (as part of the standard of care or bihemispheric model) prior to treatment initiation.

CT2A = assay: Survival study, CT2A model; format: in vivo, mice
Description: as §2

hyaluronic acid (HA) = assay: Hyaluronic acid immunofluorescent imaging, GL261; format: in vivo, mice; conditions: 2 weeks of losartan, n=5
Description: as §1

[5] = tested on: GL261 tumor blood vessels; assay: OCT imaging of tumor perfusion; format: in vivo, mice; conditions: vs PBS-treated controls
Description: In vivo imaging of perfused vessels was achieved via a custom-built optical coherence tomography (OCT) system as previously described (15). […] A depth-resolved profile was generated each day, and the raw tomograms were processed as previously described. Images across multiple days were co-registered using the Scale-invariant feature transform (SIFT) algorithm in ImageJ and Python.

GBM = conditions: in combination with the standard of care; cited from earlier work
GL261 [6] = assay: Survival study, GL261 model with standard of care (resection, radiation, temozolomide); format: in vivo, mice
Description: as §2

GL261 tumors [7] = assay: Bulk RNASeq of GL261 tumors; format: in vivo, mice
GL261 [8] = assay: Survival study, GL261 model; format: in vivo, mice; conditions: losartan with anti-PD1, no detectable tumors over 100 days
Description: as §2

GL261 tumors [9] = assay: Tumor edema by wet/dry weight (water content), GL261 model; format: in vivo; conditions: mice under anti-PD1 treatment
Description: (§3) Edema in the tumor was assessed immediately after animal sacrifice via wet/dry weight analysis to determine the water content as previously described (43).

005 GSC [10] = assay: Tumor edema by wet/dry weight, 005 GSC model; format: in vivo, mice; conditions: after 2 weeks of treatment
Description: as §3

GL261 [11] = assay: Solid stress by 3D micro-ultrasound tissue deformation, GL261; format: in vivo, mice; conditions: 2 weeks of losartan, n=4
Description: Tumor size was visualized by 3D micro-ultrasound in anesthetized mice through the transparent cranial windows (45). Ultrasound was also used to measure tumor deformation as a readout of solid stress, following previous methods (14).

glioblastoma = assay: Survival of mice with glioblastoma under losartan and ICB (summary statement); format: in vivo; conditions: losartan with ICB, in lieu of corticosteroids
GBM patients [12] = conditions: human, in vivo; cited from earlier work
GBM cells = conditions: at physiological levels; cited from earlier work
[13] = GL261, standard of care + anti-PD1 + losartan

In the case of “MEDI4763: anti-PD-L1 (NCT02336165) given to a recurrent GBM patient”, the “edema on MR T2-FLAIR images” value (recurrent GBM patient) is reported as “increased edema”.

`COc1cc2c(Oc3ccc4[nH]c(C)cc4c3F)ncnc2cc1OCCCN1CCCC1` [cediranib] showed an overall survival (GBM patients [1]) of 527 days.

With `CCCCc1nc(Cl)c(CO)n1Cc1ccc(-c2ccccc2-c2nn[nH]n2)cc1` [losartan] the PD-L1 protein expression (PD-L1) was “reduces”, the “myeloid cells in tumors” value (GL261 tumors [2]) was “fewer myeloid cells” and the “TEC MT-MMP-1 and -2 (Mt1, Mt2) expression” value [3] was “downregulating”. The “long-term survivors (LTS)” value (005 GSC [4]) was 22%, the “effect of adding losartan to anti-PD1 on survival” value (CT2A) was “failed to further enhance ICB efficacy” and the HA levels (hyaluronic acid (HA)) was “reduces”. The “tumor vessel normalization and perfusion” value [5] was “greater overall perfusion”, the “median OS” value (GBM) was “failed to improve median OS” and the “OS under the standard of care without ICB” value (GL261 [6]; GBM mouse models, losartan not given in conjunction with ICB) was “does not improve OS”. For the same compound, the long-term survivors (GL261 [6]; [13]) was 43%, the “tumor re-challenge of long-term survivors” value (GL261 [6]; [13]) was “rejected tumor re-challenge” and the mice cured (GL261 [6]; losartan with ICB in combination with standard of care treatment) was 40%. The “global and pro-tumor (M2-like) TAM-associated genes” value (GL261 tumors [7]; bulk RNASeq) was “reduced the expression”, the microglia-associated genes (GL261 tumors [7]; bulk RNASeq) was “upregulated” and the “gene expression related to ECM, angiogenesis, immunosuppression, and hypoxia” value (GL261 tumors [7]; vs controls, n=3) was “significantly reduced”. For the same compound, the “long-term survivors (LTS)” value (GL261 [8]) was 15%, the anti-PD1-induced edema (GL261 tumors [9]) was “decreases anti-PD1-induced edema” and the anti-PD1-induced edema (005 GSC [10]) was “decreases anti-PD1-induced edema”. The “solid stress (tissue deformation)” value (GL261 [11]) was “reduces” and the mice cured (glioblastoma) was 20%.

In the case of bevacizumab, the “OS in GBM patients under ICB therapy” value (GBM patients [12]) is listed as “failed to improve OS”.

In the case of `CNC(=O)[C@H](Cc1c[nH]c2ccccc12)NC(=O)[C@@H](CC(=O)NO)CC(C)C` [Ilomastat], the “toxicity to GBM cells” value (GBM cells) is listed as “non-toxic” and the anti-PD1-induced edema (GL261 tumors [9]) is listed as “controls anti-PD1-induced edema comparably to losartan; also recorded: phenocopied the ability of losartan to prevent anti-PD1-induced edema”.
